Experimental findings from patent US10329307B2, “Heterocyclic compounds as inhibitors of platelet aggregation” (UNIVERSITE DE MONTREAL, priority 2015, dated 2019) are described below.

Structures are written as SMILES.

The term IC50 denotes the point on the concentration scale where inhibition reaches its midpoint.

The assay has as its target PAR4 (Homo sapiens (Human), UniProt Q96RI0). Put plainly: FLIPR assay in PAR4-expressing HEK293 cells (PAR4 antagonist activity). It is filed as cell-based. The settings on record: H-Ala-Phe(4-F)-Pro-Gly-Trp-Leu-Val-Lys-Asn-Gly-NH2-induced intracellular calcium mobilization, 11-point curves. An excerpt:
The FLIPR assay is an exemplary in vitro assay for measuring the activity of the PAR4 antagonists of the present invention. In this assay, intracellular calcium mobilization is induced in PAR4 expressing cells by a PAR4 agonist and calcium mobilization is monitored. See, e.g., Example A.
HEK293 cells stably expressing PAR4 were generated by a standard method of transfection of human […] cDNA expression vector or by RAGE technology from Athersys Inc. (Cleveland, Ohio) and selected based on PAR4 protein expression of mRNA expression. […] These cells express endogenous PAR1 and can elicit calcium signal upon stimulation with PAR1 agonist peptide. Cells were grown in Dulbecco's Modified Eagle's Medium (DMEM) (Invitrogen, Carlsbad, Calif.), 10% FBS, 1% PSG, 3 μg/ml puromycin and 25 nM Methotrexate) at 37° C. with 5% CO2.
FLIPR-based calcium mobilization assay in HEK293 cells was used to measure PAR4 antagonism, agonism, and selectivity against PAR1. […] Counter screens for agonist activity and PAR1 antagonist activity were also performed. Briefly, PAR1/PAR4-expressing HEK293 cells were grown in DMEM (Life Technology, Grand Island, N.Y.) containing 10% heat-inactivated FBS, 1% Penicillin-Streptomycin, 10 μg/mL blasticidin, and 100 μg/mL Zeocin at 37° C. with 5% CO2. Cells were plated overnight prior to the experiment in a black 384-well Purecoat Amine clear bottom plate (Becton Dickinson Biosciences, San Jose, Calif.) at 10,000 cells/well in 30 μL growth medium and incubated in a humidified chamber at 37° C. with 5% CO2 overnight. Prior to compound addition, the cell medium was replaced with 40 μL of 1× calcium and magnesium-containing Hank's Balanced Saline Solution (HBSS) (with 20 mM HEPES) and 1:1000 diluted fluorescent calcium indicator (Codex Biosolutions, Gaithersburg, Md.). After a 30 minute incubation period at 37° C. and a further 30 minute incubation and equilibration period at room temperature, 20 μL test compound (diluted in 1×HBSS buffer) was added at various concentrations at 0.17% dimethyl sulfoxide (DMSO) final concentration. Changes in fluorescence intensity were measured using a Functional Drug Screening System (FDSS, Hamamatsu, Japan) to determine agonist activities. The cells were then incubated for 30 minutes at room temperature followed by addition of 20 μL of agonist peptide for antagonist activity measurement. […] Compound potency was derived from 11-point concentration-response curves.
As indicated above, the FLIPR assay, an in vitro assay, measures the PAR4 antagonist activity of compounds tested as described in Example A.
On the technique in general: A change in cytosolic calcium serves as a functional read-out for many receptors and channels.

Chain of PAR4 (Q96RI0 18-385): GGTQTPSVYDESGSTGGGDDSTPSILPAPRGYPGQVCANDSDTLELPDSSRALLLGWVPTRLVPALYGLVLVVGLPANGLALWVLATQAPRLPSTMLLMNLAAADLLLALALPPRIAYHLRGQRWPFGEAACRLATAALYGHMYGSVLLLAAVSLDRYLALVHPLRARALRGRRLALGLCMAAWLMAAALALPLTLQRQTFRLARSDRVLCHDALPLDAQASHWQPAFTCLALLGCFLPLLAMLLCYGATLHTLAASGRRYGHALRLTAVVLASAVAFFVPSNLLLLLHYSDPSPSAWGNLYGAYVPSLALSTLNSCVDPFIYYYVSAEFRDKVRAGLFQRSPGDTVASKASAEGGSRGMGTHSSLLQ

For the molecule `COc1cc(OC[C@@H]2CCCN2c2ccc(Cl)cc2)c2cc(-c3cn4nc(OC)sc4n3)oc2c1` [Example 15], the concentration for half-maximal inhibition (IC50) was determined as 1.3 µM. With `CCOC(=O)c1ccc(N2CCC[C@@H](COc3cc(OC)cc4oc(-c5cn6nc(OC)sc6n5)cc34)C2)cc1` [Example 29] the figure was 0.95 µM. With `COc1cc(OCC2CCN(c3ccccc3)CC2)c2cc(-c3cn4nc(OC)sc4n3)oc2c1` [Example 51] the figure was 5 µM; with `COc1cc(OC[C@@H]2CCCN2c2ccc(C#N)cc2)c2cc(-c3cn4nc(OC)sc4n3)oc2c1` [Example 16], 0.5 µM; with `COc1cc(OCC2CCCN(S(=O)(=O)c3ccc(C)cc3)C2)c2cc(-c3cn4nc(OC)sc4n3)oc2c1` (centres unmarked) [Example 8, 2-methoxy-6-(6-methoxy-4-((1-tosylpiperidin-3-yl)methoxy)benzofuran-2-yl)imidazo[2,1-b][1,3,4]thiadiazole], 1.4 µM. With `COc1cc(OC[C@@H]2CCN(c3ccc(Cl)cc3)C2)c2cc(-c3cn4nc(OC)sc4n3)oc2c1` [Example 25] the figure was 0.79 µM; with `COc1cc(OCC2CCCN(c3cc(C#N)ccn3)C2)c2cc(-c3cn4nc(OC)sc4n3)oc2c1` (centres unmarked) [Example 43], 0.48 µM. In the case of `COc1ccc(N2CCN(CC3CC3)CC2COc2cc(OC)cc3oc(-c4cn5nc(C)ccc5n4)cc23)cc1` (centres unmarked) [Example 7, 2-(4-((4-(cyclopropylmethyl)-1-(4-methoxyphenyl)piperazin-2-yl)methoxy)-6-methoxybenzofuran-2-yl)-6-methylimidazo[1,2-b]pyridazine], the IC50 was found to be 16 µM.

For `COc1cc(OCC2CCCN(c3ncc(Br)s3)C2)c2cc(-c3cn4nc(OC)sc4n3)oc2c1` (centres unmarked) [Example 62], the IC50 turned out to be 1.9 µM. For `COc1cc(OCC2CCCN(c3ccc(C#N)cc3)C2)c2cc(-c3cn4nc(OC)sc4n3)oc2c1` (centres unmarked) [Example 40], the IC50 is 1.3 µM. In the case of `COc1cc(OC[C@@H]2CCCN(c3ccc(C#N)cn3)C2)c2cc(-c3cn4nc(OC)sc4n3)oc2c1` [Example 44] it was 0.75 µM; in that of `COc1cc(OCC2CCCCN2c2ccc(Cl)cc2)c2cc(-c3cn4nc(OC)sc4n3)oc2c1` (centres unmarked) [Example 57], 0.74 µM; in that of `COc1ccc(COc2ccc(N3CCCC(COc4cc(OC)cc5oc(-c6cn7nc(OC)sc7n6)cc45)C3)cc2)cc1` (centres unmarked) [Example 70], 3.5 µM. In the case of `COc1cc(OCC2CCC(=O)N(c3ccc(Cl)cc3)C2)c2cc(-c3cn4nc(OC)sc4n3)oc2c1` (centres unmarked) [Example 67] it was 3.3 µM. In the case of `COc1cc(OC[C@H]2CCCN2C2CCOCC2)c2cc(-c3cn4nc(OC)sc4n3)oc2c1` [Example 2, (R)-2-methoxy-6-(6-methoxy-4-((1-(tetrahydro-2H-pyran-4-yl)pyrrolidin-2-yl)methoxy)benzofuran-2-yl)imidazo[2,1-b][1,3,4]thiadiazole] it was 9.4 µM; in that of `COc1cc(OCC2CCCN(c3ccc(Cl)cc3)C2)c2cc(-c3cn4nc(OC)sc4n3)oc2c1` (centres unmarked) [Example 33], 0.44 µM. Turning to `COc1ccc(N2CCCC(COc3cc(OC)cc4oc(-c5cn6nc(OC)sc6n5)cc34)C2)c(OC)c1` (centres unmarked) [Example 42], the IC50 is 1.1 µM.

Consider `COc1cc(OCC2CCCN(c3ccc4c(c3)OCO4)C2)c2cc(-c3cn4nc(OC)sc4n3)oc2c1` (centres unmarked) [Example 38], for which the 50% inhibitory concentration (IC50) came out at 0.54 µM. In the case of `COc1cc(OCC2CCCN(c3ccc(NC(=O)OC(C)(C)C)nc3)C2)c2cc(-c3cn4nc(OC)sc4n3)oc2c1` (centres unmarked) [Example 69] it was 3.2 µM; in that of `COc1cc(OCC2CCN(c3ccc(Cl)cc3)CC2)c2cc(-c3cn4nc(OC)sc4n3)oc2c1` [Example 49], 2.7 µM. In the case of `COc1cc(OCC2CCCCN2c2ccc(Cl)cc2)c2cc(-c3cn4nc(OC)sc4n3)oc2c1` (single isomer, unassigned) [Example 56] it was 0.92 µM. In the case of `COc1cc(OC[C@H]2CCCN(c3ccc(C#N)cc3)C2)c2cc(-c3cn4nc(OC)sc4n3)oc2c1` [Example 30] it was 0.86 µM; in that of `COc1cc(OC[C@@H]2CCCN(c3ccc(Cl)cc3)C2)c2cc(-c3cn4nc(OC)sc4n3)oc2c1` [Example 34], 0.7 µM.

As for `CCOC(=O)c1ccc(N2CCC(COc3cc(OC)cc4oc(-c5cn6nc(OC)sc6n5)cc34)CC2)cc1` [Example 47], the IC50 turned out to be 1 µM. In the case of `COc1cc(OCC2CCCN(C3CCOCC3)C2)c2cc(-c3cn4nc(OC)sc4n3)oc2c1` (centres unmarked) [Example 73] it was 47 µM. In the case of `COc1cc(OC[C@@H]2CCCN2c2ccc(C(F)(F)F)cc2)c2cc(-c3cn4nc(OC)sc4n3)oc2c1` [Example 22] it was 0.44 µM. In the case of `CCOC(=O)c1ccc(N2CCC[C@H](COc3cc(OC)cc4oc(-c5cn6nc(OC)sc6n5)cc34)C2)cc1` [Example 31] it was 0.89 µM; in that of `COc1cc(OCC2CN(c3ccc(F)cc3)C2)c2cc(-c3cn4nc(OC)sc4n3)oc2c1` [Example 27], 2.3 µM. Take `COc1cccc(N2CCC[C@H]2COc2cc(OC)cc3oc(-c4cn5nc(OC)sc5n4)cc23)c1` [Example 19]: the IC50 is 0.46 µM. In the case of `COc1cc(OC[C@@H]2CCCN2c2ccc(C)cc2)c2cc(-c3cn4nc(OC)sc4n3)oc2c1` [Example 24] it was 0.95 µM. In the case of `COc1ccc(N2CCCC(COc3cc(OC)cc4oc(-c5cn6nc(OC)sc6n5)cc34)C2)cc1` (centres unmarked) [Example 36] it was 0.75 µM; in that of `COc1cc(OC[C@H]2CCCN2c2ccc3c(c2)OCO3)c2cc(-c3cn4nc(OC)sc4n3)oc2c1` [Example 12], 0.42 µM. In the case of `COc1cc(OCC2CCCCN2c2ccc(Cl)cc2)c2cc(-c3cn4nc(OC)sc4n3)oc2c1` (centres unmarked) [Example 55] it was 0.72 µM. With `COc1cc(OCC2CCN(c3ccc(F)cc3)CC2)c2cc(-c3cn4nc(OC)sc4n3)oc2c1` [Example 50], the IC50 is 4.8 µM. On to `COc1cc(OCC2CCCN(c3ccc(NC(=O)OC(C)(C)C)cc3)C2)c2cc(-c3cn4nc(OC)sc4n3)oc2c1` (centres unmarked) [Example 68], for which the half-inhibitory concentration (IC50) is 2.1 µM. With `CCOC(=O)c1ccc(N2CCC[C@@H]2COc2cc(OC)cc3oc(-c4cn5nc(OC)sc5n4)cc23)cc1` [Example 13] the figure was 0.55 µM; with `COc1cc(OC[C@@H]2CCCN(c3ccc(F)cc3)C2)c2cc(-c3cn4nc(OC)sc4n3)oc2c1` [Example 72], 1.4 µM; with `COc1ccc(N2CCN(C(=O)OC(C)(C)C)CC2COc2cc(OC)cc3oc(-c4cn5nc(C)ccc5n4)cc23)cc1` (centres unmarked) [Example 3, tert-butyl 3-(((6-methoxy-2-(6-methylimidazo[1,2-b]pyridazin-2-yl)benzofuran-4-yl)oxy)methyl)-4-(4-methoxyphenyl)piperazine-1-carboxylate], 1.2 µM. With `COc1ccc(N2CCC[C@H]2COc2cc(OC)cc3oc(-c4cn5nc(OC)sc5n4)cc23)cc1` [Example 17] the figure was 0.29 µM. With `CCOC(=O)c1ccc(N2CCCC(COc3cc(OC)cc4oc(-c5cn6nc(OC)sc6n5)cc34)C2)cc1` (centres unmarked) [Example 41] the figure was 2.1 µM; with `COc1cc(OCC2CCCCN2c2ccc(C#N)cc2)c2cc(-c3cn4nc(OC)sc4n3)oc2c1` (centres unmarked) [Example 46], 0.24 µM; with `COc1cc(OC[C@H]2CCCN2c2ccc(Cl)cc2)c2cc(-c3cn4nc(OC)sc4n3)oc2c1` [Example 9], 0.95 µM. Take `COc1ccc(N2CCC[C@H]2COc2cc(OC)cc3oc(-c4cn5nc(OC)sc5n4)cc23)nc1` [Example 20]: the IC50 is 0.71 µM. On to `COc1cc(OCC2CCCN(c3ncc(F)cc3F)C2)c2cc(-c3cn4nc(OC)sc4n3)oc2c1` (centres unmarked) [Example 37], for which the IC50 was 0.56 µM.

Take `COc1cc(OC[C@@H]2CCCN2c2ccc(F)cc2)c2cc(-c3cn4nc(OC)sc4n3)oc2c1` [Example 18]: the half-inhibitory concentration (IC50) was 0.47 µM. `COc1cc(OC[C@H]2CCCN(c3ccccc3)C2)c2cc(-c3cn4nc(OC)sc4n3)oc2c1` [Example 54]: the concentration for half-maximal inhibition (IC50) was 1.4 µM.

Turning to `COc1cc(OC[C@@H]2CCCN2c2ccc3c(c2)OCO3)c2cc(-c3cn4nc(OC)sc4n3)oc2c1` [Example 21], the IC50 came out at 0.54 µM. In the case of `COc1cc(OCC2CCCN(c3ncc(Br)cn3)C2)c2cc(-c3cn4nc(OC)sc4n3)oc2c1` (centres unmarked) [Example 66] it was 1.4 µM; in that of `COc1cc(OC[C@H]2CCCN(c3ccc(F)cc3)C2)c2cc(-c3cn4nc(OC)sc4n3)oc2c1` [Example 52], 1.1 µM; in that of `COc1cc(OC[C@H]2CCCN(Cc3ccc(Cl)cc3)C2)c2cc(-c3cn4nc(OC)sc4n3)oc2c1` [Example 58], 1.4 µM.
